Laboratory results published in the kinase profiling compilation of Christmann-Franck et al. (2016).

Tests used:
Assay in all cases: radiometric filter-binding kinase assay
[1] = biological target: STK11 CAB39 STRADA (human) (UniProt Q9Y376+Q7RTN6+Q15831)
EEF2K (human) = EEF2K (human) (UniProt O00418)
PAK6 (human) = PAK6 (human) (UniProt Q9NQU5)
YES1 (human) = YES1 (human) (UniProt P07947)
MAPK10 (human) = MAPK10 (human) (UniProt P53779)
PRKCZ (human) = PRKCZ (human) (UniProt Q05513)
HIPK2 (human) = HIPK2 (human) (UniProt Q9H2X6)
MARK4 (human) = MARK4 (human) (UniProt Q96L34)
IGF1R (human) = IGF1R (human) (UniProt P08069)
SRC (human) = SRC (human) (UniProt P12931)
HIPK1 (human) = HIPK1 (human) (UniProt Q86Z02)
CHEK1 (human) = CHEK1 (human) (UniProt O14757)
GSK3B (human) = GSK3B (human) (UniProt P49841)
SYK (human) = SYK (human) (UniProt P43405)
MAPK9 (human) = MAPK9 (human) (UniProt P45984)
[2] = tested on: PAK2 (human), Q13177 [T402E]
MELK (human) = MELK (human) (UniProt Q14680)
MAP3K9 (human) = MAP3K9 (human) (UniProt P80192)
TTK (human) = TTK (human) (UniProt P33981)
AURKB (human) = AURKB (human) (UniProt Q96GD4)
CSNK1D (human) = CSNK1D (human) (UniProt P48730)
FGFR1 (human) = FGFR1 (human) (UniProt P11362)
PKN2 (human) = PKN2 (human) (UniProt Q16513)
MAPK13 (human) = MAPK13 (human) (UniProt O15264)
MYLK (human) = MYLK (human) (UniProt Q15746)
AURKA (human) = AURKA (human) (UniProt O14965)
GCK (human) = GCK (human) (UniProt Q12851)
FLT1 (human) = FLT1 (human) (UniProt P17948)
MAPK1 (human) = MAPK1 (human) (UniProt P28482)
[3] = tested on: AKT2 (human), P31751 [S474D]
MAP3K1 (human) = MAP3K1 (human) (UniProt Q13233)
EPHB4 (human) = EPHB4 (human) (UniProt P54760)

Chain of FLT1 (human) (P17948 whole entry, looked up): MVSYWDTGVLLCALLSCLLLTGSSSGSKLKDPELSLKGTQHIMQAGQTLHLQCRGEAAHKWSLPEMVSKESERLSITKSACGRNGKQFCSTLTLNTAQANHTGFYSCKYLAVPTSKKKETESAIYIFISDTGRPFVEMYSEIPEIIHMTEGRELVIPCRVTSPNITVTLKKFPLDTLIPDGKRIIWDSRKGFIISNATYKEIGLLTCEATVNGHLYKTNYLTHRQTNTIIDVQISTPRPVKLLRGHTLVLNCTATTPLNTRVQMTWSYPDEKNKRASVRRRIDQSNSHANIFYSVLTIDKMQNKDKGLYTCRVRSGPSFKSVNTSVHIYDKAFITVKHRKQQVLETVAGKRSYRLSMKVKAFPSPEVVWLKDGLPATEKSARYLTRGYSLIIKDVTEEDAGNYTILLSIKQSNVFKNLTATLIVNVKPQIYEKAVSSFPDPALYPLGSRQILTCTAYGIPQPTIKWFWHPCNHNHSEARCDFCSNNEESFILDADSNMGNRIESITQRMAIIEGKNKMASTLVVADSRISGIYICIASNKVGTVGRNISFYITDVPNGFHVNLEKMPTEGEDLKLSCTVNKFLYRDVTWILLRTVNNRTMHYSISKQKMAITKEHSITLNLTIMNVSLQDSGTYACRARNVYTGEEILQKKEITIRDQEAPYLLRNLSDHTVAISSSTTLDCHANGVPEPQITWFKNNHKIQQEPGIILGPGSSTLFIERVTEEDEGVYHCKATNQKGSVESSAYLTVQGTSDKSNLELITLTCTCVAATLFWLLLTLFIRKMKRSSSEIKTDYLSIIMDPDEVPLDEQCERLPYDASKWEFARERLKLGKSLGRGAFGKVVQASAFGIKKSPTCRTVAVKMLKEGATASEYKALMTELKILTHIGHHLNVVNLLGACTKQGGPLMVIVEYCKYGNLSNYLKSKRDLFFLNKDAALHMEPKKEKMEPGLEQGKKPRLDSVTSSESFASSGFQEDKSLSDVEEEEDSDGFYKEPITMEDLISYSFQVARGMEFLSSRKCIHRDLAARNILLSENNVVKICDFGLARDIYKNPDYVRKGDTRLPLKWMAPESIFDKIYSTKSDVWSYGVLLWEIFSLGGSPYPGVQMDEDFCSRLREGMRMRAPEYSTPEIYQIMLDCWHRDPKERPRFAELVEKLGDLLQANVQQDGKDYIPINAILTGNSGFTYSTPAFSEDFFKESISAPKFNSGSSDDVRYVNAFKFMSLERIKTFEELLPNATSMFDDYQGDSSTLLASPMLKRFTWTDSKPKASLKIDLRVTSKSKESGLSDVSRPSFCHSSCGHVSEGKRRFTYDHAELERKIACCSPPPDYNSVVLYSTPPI
Chain of MAPK13 (human) (O15264 whole entry, looked up): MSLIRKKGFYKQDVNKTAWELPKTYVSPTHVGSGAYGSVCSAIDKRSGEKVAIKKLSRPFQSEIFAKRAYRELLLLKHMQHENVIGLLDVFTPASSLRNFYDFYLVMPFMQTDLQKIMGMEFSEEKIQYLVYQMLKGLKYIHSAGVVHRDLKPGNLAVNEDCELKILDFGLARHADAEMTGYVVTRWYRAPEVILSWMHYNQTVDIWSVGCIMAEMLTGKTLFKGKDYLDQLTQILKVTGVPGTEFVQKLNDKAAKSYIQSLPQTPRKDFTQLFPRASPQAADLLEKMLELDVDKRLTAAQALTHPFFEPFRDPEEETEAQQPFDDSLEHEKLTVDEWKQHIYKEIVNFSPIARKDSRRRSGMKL
Chain of MAPK1 (human) (P28482 whole entry, looked up): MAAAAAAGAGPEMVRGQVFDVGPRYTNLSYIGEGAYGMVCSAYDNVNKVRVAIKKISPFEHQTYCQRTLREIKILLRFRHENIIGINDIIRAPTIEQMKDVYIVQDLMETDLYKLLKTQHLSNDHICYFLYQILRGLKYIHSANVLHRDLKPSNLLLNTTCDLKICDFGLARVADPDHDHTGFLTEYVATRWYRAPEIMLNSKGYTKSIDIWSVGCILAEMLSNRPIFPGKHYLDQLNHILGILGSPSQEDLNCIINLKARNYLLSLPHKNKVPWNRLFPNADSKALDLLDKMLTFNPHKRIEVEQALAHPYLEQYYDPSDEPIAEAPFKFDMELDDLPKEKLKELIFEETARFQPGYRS
Chain of EEF2K (human) (O00418 whole entry, looked up): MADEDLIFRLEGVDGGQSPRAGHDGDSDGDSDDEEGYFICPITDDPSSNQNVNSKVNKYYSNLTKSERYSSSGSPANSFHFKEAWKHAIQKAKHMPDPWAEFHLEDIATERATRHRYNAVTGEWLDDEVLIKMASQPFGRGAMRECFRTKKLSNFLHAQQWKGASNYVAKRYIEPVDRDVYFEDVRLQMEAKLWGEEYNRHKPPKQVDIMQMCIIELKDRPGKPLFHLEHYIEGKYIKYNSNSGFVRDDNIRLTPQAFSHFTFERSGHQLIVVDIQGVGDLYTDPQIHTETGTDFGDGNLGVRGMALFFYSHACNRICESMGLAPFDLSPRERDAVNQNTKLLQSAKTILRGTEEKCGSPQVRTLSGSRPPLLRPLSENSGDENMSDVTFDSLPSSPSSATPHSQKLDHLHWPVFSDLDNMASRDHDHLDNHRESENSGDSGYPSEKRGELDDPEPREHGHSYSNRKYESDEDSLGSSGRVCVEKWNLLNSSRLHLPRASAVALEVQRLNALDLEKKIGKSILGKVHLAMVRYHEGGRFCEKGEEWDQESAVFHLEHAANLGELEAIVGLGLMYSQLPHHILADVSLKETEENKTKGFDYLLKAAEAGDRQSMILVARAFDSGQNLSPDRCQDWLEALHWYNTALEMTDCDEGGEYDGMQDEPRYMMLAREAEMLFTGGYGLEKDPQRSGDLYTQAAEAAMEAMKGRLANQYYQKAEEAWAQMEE
Chain of AKT2 (human), P31751 [S474D] (P31751 whole entry S474D, looked up): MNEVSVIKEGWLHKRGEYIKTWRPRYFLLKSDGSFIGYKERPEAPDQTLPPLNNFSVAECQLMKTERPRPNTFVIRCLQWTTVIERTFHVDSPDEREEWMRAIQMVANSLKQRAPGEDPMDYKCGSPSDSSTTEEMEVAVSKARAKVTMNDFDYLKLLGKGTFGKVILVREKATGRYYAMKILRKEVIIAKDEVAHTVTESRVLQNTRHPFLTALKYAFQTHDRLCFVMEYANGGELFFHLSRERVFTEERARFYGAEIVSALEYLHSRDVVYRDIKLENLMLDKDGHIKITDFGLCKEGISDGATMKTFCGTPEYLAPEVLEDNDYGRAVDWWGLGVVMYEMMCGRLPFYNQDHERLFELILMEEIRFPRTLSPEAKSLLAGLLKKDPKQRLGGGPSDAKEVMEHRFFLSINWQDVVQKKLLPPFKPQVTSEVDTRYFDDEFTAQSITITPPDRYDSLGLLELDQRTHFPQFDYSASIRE
Chain of GCK (human) (Q12851 whole entry, looked up): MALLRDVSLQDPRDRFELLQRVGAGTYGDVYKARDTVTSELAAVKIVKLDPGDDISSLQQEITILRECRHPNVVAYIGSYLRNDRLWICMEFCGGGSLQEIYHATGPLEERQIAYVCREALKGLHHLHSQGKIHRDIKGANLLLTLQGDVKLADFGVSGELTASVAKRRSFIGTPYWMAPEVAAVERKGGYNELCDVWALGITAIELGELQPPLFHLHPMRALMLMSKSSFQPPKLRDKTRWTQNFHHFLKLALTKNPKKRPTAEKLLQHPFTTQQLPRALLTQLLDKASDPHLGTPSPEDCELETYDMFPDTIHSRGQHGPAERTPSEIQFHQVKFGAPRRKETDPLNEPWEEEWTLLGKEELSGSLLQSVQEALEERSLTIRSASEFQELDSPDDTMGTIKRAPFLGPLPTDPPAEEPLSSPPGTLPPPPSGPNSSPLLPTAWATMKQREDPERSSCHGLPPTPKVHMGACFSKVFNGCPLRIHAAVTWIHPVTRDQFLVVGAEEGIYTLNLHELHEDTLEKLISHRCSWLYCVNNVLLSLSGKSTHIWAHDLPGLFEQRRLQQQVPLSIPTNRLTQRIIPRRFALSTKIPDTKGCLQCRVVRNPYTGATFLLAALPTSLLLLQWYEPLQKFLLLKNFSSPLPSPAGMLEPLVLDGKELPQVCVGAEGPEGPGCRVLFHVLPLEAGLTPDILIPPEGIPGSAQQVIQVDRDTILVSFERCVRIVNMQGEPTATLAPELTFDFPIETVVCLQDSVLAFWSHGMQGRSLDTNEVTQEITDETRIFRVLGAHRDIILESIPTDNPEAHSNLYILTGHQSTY
Chain of YES1 (human) (P07947 whole entry, looked up): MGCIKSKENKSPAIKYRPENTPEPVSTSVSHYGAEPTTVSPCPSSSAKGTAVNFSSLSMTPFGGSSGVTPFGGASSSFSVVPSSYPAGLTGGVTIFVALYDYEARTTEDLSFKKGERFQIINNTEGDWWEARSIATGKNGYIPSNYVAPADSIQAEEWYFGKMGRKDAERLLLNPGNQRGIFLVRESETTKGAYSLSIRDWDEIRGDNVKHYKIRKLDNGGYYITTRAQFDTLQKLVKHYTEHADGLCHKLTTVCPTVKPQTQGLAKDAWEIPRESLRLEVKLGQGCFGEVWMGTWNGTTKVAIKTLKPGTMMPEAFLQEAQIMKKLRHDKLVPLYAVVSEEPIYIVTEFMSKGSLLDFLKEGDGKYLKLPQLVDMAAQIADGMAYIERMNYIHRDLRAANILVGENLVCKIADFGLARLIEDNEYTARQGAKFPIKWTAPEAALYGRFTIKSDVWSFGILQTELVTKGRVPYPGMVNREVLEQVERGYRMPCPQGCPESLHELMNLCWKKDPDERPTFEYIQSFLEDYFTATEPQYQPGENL
Chain of AURKB (human) (Q96GD4 whole entry, looked up): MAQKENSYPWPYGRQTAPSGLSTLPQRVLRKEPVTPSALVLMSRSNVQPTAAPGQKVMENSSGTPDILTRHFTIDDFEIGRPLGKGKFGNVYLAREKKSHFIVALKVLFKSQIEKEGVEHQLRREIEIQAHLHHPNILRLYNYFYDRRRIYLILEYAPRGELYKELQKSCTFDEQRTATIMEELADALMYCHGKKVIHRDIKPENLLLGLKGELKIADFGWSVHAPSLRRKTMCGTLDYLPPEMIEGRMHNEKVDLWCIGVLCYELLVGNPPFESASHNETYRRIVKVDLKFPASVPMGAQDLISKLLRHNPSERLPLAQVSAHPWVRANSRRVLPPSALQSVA

O=C(O)c1cc(N=Nc2ccc(S(=O)(=O)Nc3ccccn3)cc2)ccc1O
residual activity ([1]; compound 1.0 µM): 124% | residual activity ([1]; compound 10.0 µM): 117% | residual activity (EEF2K (human); compound 1.0 µM): 95% | residual activity (EEF2K (human); compound 10.0 µM): 109% | residual activity (PAK6 (human); compound 1.0 µM): 99% | residual activity (PAK6 (human); compound 10.0 µM): 99% | residual activity (YES1 (human); compound 1.0 µM): 113% | residual activity (YES1 (human); compound 10.0 µM): 103% | residual activity (MAPK10 (human); compound 1.0 µM): 105% | residual activity (MAPK10 (human); compound 10.0 µM): 107% | residual activity (PRKCZ (human); compound 1.0 µM): 96% | residual activity (PRKCZ (human); compound 10.0 µM): 103% | residual activity (HIPK2 (human); compound 10.0 µM): 94% | residual activity (MARK4 (human); compound 1.0 µM): 98% | residual activity (MARK4 (human); compound 10.0 µM): 89% | residual activity (IGF1R (human); compound 1.0 µM): 111% | residual activity (IGF1R (human); compound 10.0 µM): 98% | residual activity (SRC (human); compound 1.0 µM): 94% | residual activity (SRC (human); compound 10.0 µM): 83% | residual activity (HIPK1 (human); compound 1.0 µM): 111% | residual activity (HIPK1 (human); compound 10.0 µM): 105% | residual activity (CHEK1 (human); compound 1.0 µM): 104% | residual activity (CHEK1 (human); compound 10.0 µM): 109% | residual activity (GSK3B (human); compound 1.0 µM): 101% | residual activity (GSK3B (human); compound 10.0 µM): 93% | residual activity (SYK (human); compound 1.0 µM): 101% | residual activity (SYK (human); compound 10.0 µM): 107% | residual activity (MAPK9 (human); compound 1.0 µM): 128% | residual activity (MAPK9 (human); compound 10.0 µM): 117% | residual activity ([2]; compound 1.0 µM): 108% | residual activity ([2]; compound 10.0 µM): 94% | residual activity (MELK (human); compound 1.0 µM): 113% | residual activity (MELK (human); compound 10.0 µM): 101% | residual activity (MAP3K9 (human); compound 1.0 µM): 105% | residual activity (MAP3K9 (human); compound 10.0 µM): 89% | residual activity (TTK (human); compound 1.0 µM): 98% | residual activity (TTK (human); compound 10.0 µM): 88% | residual activity (AURKB (human); compound 1.0 µM): 104% | residual activity (AURKB (human); compound 10.0 µM): 105% | residual activity (CSNK1D (human); compound 1.0 µM): 103% | residual activity (CSNK1D (human); compound 10.0 µM): 95% | residual activity (FGFR1 (human); compound 1.0 µM): 110% | residual activity (FGFR1 (human); compound 10.0 µM): 115% | residual activity (PKN2 (human); compound 1.0 µM): 94% | residual activity (PKN2 (human); compound 10.0 µM): 90% | residual activity (MAPK13 (human); compound 1.0 µM): 100% | residual activity (MAPK13 (human); compound 10.0 µM): 103% | residual activity (MYLK (human); compound 1.0 µM): 112% | residual activity (MYLK (human); compound 10.0 µM): 99% | residual activity (AURKA (human); compound 10.0 µM): 100% | residual activity (GCK (human); compound 1.0 µM): 101% | residual activity (GCK (human); compound 10.0 µM): 96% | residual activity (FLT1 (human); compound 1.0 µM): 102% | residual activity (FLT1 (human); compound 10.0 µM): 105% | residual activity (MAPK1 (human); compound 1.0 µM): 104% | residual activity (MAPK1 (human); compound 10.0 µM): 97% | residual activity ([3]; compound 10.0 µM): 94%

Cc1cccc(-c2nn(C(=S)Nc3ccccc3)cc2-c2ccnc3ccccc23)n1
residual activity ([1]; compound 0.1 µM): 101% | residual activity ([1]; compound 1.0 µM): 99% | residual activity (EEF2K (human); compound 0.1 µM): 102% | residual activity (EEF2K (human); compound 1.0 µM): 100% | residual activity (MAP3K1 (human); compound 0.1 µM): 130% | residual activity (MAP3K1 (human); compound 1.0 µM): 111% | residual activity (PAK6 (human); compound 0.1 µM): 111% | residual activity (PAK6 (human); compound 1.0 µM): 113% | residual activity (YES1 (human); compound 0.1 µM): 106% | residual activity (YES1 (human); compound 1.0 µM): 70% | residual activity (EPHB4 (human); compound 0.1 µM): 93% | residual activity (EPHB4 (human); compound 1.0 µM): 93% | residual activity (MAPK10 (human); compound 0.1 µM): 119% | residual activity (MAPK10 (human); compound 1.0 µM): 99% | residual activity (PRKCZ (human); compound 0.1 µM): 98% | residual activity (PRKCZ (human); compound 1.0 µM): 100% | residual activity (HIPK2 (human); compound 0.1 µM): 104% | residual activity (HIPK2 (human); compound 1.0 µM): 95% | residual activity (MARK4 (human); compound 0.1 µM): 98% | residual activity (MARK4 (human); compound 1.0 µM): 87% | residual activity (IGF1R (human); compound 0.1 µM): 97% | residual activity (IGF1R (human); compound 1.0 µM): 103% | residual activity (SRC (human); compound 0.1 µM): 102% | residual activity (SRC (human); compound 1.0 µM): 75% | residual activity (HIPK1 (human); compound 0.1 µM): 96% | residual activity (HIPK1 (human); compound 1.0 µM): 98% | residual activity (CHEK1 (human); compound 0.1 µM): 107% | residual activity (CHEK1 (human); compound 1.0 µM): 105% | residual activity (GSK3B (human); compound 0.1 µM): 99% | residual activity (GSK3B (human); compound 1.0 µM): 79% | residual activity (SYK (human); compound 0.1 µM): 109% | residual activity (SYK (human); compound 1.0 µM): 106% | residual activity (MAPK9 (human); compound 0.1 µM): 105% | residual activity (MAPK9 (human); compound 1.0 µM): 90% | residual activity ([2]; compound 0.1 µM): 111% | residual activity ([2]; compound 1.0 µM): 101% | residual activity (MELK (human); compound 0.1 µM): 111% | residual activity (MELK (human); compound 1.0 µM): 105% | residual activity (MAP3K9 (human); compound 0.1 µM): 96% | residual activity (MAP3K9 (human); compound 1.0 µM): 86% | residual activity (TTK (human); compound 0.1 µM): 113% | residual activity (TTK (human); compound 1.0 µM): 98% | residual activity (AURKB (human); compound 0.1 µM): 98% | residual activity (AURKB (human); compound 1.0 µM): 102% | residual activity (CSNK1D (human); compound 0.1 µM): 90% | residual activity (CSNK1D (human); compound 1.0 µM): 46% | residual activity (FGFR1 (human); compound 0.1 µM): 64% | residual activity (FGFR1 (human); compound 1.0 µM): 37% | residual activity (PKN2 (human); compound 0.1 µM): 105% | residual activity (PKN2 (human); compound 1.0 µM): 91% | residual activity (MAPK13 (human); compound 1.0 µM): 94% | residual activity (MYLK (human); compound 0.1 µM): 104% | residual activity (MYLK (human); compound 1.0 µM): 89% | residual activity (AURKA (human); compound 0.1 µM): 120% | residual activity (AURKA (human); compound 1.0 µM): 107% | residual activity (GCK (human); compound 0.1 µM): 98% | residual activity (GCK (human); compound 1.0 µM): 68% | residual activity (FLT1 (human); compound 0.1 µM): 27% | residual activity (FLT1 (human); compound 1.0 µM): 8% | residual activity (MAPK1 (human); compound 0.1 µM): 104% | residual activity (MAPK1 (human); compound 1.0 µM): 94% | residual activity ([3]; compound 0.1 µM): 108% | residual activity ([3]; compound 1.0 µM): 96%
